From ChEMBL document CHEMBL5291721, “A preclinical secondary pharmacology resource illuminates target-adverse drug reaction associations of marketed drugs” (Nat Commun, 2023)

Assays:
[1] = target: T1, Alpha-1A adrenergic receptor (Homo sapiens, UniProt P35348); assay type: functional, cell-based
T1 sequence (P35348 whole entry): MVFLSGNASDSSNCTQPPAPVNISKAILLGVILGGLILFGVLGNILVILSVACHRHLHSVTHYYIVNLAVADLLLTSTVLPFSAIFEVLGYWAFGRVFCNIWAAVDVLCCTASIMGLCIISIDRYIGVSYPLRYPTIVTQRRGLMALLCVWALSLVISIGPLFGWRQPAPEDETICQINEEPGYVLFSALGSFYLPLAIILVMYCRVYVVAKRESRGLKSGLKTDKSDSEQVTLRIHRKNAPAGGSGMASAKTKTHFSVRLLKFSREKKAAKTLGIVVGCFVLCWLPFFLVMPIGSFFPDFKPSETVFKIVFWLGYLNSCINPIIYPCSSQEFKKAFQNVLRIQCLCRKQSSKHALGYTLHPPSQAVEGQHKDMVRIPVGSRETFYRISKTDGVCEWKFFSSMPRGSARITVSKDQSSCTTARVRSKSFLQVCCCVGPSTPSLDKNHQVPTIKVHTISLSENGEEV

[2] = target: T2, Androgen receptor (Homo sapiens, UniProt P10275)
T2 sequence (P10275 whole entry): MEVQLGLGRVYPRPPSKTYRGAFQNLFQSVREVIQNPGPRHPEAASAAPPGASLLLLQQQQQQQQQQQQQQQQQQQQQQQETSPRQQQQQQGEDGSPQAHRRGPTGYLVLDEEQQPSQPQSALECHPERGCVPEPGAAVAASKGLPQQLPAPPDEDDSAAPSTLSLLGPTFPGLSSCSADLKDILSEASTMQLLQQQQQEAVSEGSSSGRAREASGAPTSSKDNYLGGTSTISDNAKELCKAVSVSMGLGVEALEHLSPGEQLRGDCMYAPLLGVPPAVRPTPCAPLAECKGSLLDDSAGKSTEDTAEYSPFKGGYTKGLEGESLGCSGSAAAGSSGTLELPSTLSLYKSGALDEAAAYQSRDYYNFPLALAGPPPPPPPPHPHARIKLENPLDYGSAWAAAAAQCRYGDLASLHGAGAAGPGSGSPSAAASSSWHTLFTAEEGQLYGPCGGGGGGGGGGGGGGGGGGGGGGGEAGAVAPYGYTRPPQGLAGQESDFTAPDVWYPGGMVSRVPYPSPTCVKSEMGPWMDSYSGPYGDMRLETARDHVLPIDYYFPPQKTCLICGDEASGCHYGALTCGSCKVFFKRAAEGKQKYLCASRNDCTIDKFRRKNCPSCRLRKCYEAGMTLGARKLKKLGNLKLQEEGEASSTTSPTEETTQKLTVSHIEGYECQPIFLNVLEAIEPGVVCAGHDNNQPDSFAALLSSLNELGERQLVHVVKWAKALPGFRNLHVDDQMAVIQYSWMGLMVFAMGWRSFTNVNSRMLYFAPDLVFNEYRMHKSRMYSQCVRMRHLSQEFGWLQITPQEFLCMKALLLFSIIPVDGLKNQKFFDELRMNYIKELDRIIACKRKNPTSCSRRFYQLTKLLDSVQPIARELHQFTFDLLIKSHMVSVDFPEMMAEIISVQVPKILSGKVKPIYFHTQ

[3] = target: T1, Alpha-1A adrenergic receptor; assay type: functional, cell-based; remark: listed apart in the source
[4] = target: T3, 5-hydroxytryptamine receptor 3A (Homo sapiens, UniProt P46098); assay type: functional
T3 sequence (P46098 whole entry): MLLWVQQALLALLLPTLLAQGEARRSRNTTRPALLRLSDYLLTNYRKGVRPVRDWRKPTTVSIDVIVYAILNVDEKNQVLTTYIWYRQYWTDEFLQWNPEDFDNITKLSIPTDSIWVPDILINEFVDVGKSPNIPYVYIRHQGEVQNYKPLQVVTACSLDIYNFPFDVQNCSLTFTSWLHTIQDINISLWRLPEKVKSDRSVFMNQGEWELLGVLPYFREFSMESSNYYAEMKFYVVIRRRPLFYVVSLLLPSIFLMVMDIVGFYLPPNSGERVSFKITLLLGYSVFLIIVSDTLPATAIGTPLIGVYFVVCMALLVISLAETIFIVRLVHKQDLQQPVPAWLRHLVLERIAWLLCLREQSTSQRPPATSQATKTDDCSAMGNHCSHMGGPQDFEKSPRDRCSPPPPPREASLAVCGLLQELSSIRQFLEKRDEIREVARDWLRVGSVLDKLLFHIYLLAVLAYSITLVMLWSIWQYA

[5] = target: 3',5'-cyclic-AMP phosphodiesterase 4D (Homo sapiens, UniProt Q08499); assay type: functional
[6] = target: D(1A) dopamine receptor (Homo sapiens, UniProt P21728); assay type: functional, cell-based
[7] = target: Gamma-aminobutyric acid receptor subunit alpha-1 (Rattus norvegicus, UniProt P62813)
[8] = target: T4, Endothelin-1 receptor (Homo sapiens, UniProt P25101)
T4 sequence (P25101 whole entry): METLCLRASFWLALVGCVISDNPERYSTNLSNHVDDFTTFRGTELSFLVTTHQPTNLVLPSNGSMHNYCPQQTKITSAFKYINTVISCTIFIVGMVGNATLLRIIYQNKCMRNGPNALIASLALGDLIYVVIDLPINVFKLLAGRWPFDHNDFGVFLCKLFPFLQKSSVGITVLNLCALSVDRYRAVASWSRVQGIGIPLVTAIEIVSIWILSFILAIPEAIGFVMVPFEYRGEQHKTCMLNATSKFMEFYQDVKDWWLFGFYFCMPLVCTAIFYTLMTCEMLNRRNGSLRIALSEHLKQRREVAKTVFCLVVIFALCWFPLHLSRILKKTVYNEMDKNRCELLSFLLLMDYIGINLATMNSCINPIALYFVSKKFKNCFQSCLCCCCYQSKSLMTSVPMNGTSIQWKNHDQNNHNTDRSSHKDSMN

[9] = target: T5, Equilibrative nucleoside transporter 1 (Homo sapiens, UniProt Q99808)
T5 sequence (Q99808 whole entry): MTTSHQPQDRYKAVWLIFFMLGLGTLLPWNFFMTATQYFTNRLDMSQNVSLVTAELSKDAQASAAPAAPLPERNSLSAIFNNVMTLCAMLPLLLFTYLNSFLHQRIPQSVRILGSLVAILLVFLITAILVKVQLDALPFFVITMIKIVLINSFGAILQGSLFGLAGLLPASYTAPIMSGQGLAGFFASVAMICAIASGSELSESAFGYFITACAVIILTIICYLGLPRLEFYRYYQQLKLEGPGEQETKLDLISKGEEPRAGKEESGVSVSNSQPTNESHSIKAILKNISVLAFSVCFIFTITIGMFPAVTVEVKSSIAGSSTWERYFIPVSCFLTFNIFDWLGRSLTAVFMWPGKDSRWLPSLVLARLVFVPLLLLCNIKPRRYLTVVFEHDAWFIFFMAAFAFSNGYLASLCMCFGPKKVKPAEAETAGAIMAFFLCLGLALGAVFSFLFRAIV
Also: assay procedure not described here.

Chain of 3',5'-cyclic-AMP phosphodiesterase 4D (Q08499 whole entry): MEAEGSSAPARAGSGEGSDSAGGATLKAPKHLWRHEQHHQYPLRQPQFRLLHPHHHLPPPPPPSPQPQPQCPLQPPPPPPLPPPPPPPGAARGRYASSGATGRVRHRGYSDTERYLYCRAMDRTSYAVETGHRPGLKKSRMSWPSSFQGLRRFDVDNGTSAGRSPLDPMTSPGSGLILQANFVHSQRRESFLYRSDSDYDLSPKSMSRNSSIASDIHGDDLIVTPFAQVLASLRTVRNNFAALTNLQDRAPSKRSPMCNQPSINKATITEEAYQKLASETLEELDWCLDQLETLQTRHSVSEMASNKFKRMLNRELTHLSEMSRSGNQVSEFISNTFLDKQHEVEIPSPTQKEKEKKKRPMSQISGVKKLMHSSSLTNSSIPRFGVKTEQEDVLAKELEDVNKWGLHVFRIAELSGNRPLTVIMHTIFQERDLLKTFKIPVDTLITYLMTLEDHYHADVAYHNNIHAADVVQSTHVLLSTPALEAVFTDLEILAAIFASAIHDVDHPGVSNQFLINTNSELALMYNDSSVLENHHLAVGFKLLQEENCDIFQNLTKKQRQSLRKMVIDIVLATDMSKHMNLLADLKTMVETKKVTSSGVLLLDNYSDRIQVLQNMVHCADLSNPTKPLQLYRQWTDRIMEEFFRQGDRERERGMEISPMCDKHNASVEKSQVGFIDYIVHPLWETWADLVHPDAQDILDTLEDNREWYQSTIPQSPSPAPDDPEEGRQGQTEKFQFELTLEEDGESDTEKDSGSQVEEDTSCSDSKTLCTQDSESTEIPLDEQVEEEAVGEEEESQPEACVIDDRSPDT
Chain of Gamma-aminobutyric acid receptor subunit alpha-1 (P62813 whole entry): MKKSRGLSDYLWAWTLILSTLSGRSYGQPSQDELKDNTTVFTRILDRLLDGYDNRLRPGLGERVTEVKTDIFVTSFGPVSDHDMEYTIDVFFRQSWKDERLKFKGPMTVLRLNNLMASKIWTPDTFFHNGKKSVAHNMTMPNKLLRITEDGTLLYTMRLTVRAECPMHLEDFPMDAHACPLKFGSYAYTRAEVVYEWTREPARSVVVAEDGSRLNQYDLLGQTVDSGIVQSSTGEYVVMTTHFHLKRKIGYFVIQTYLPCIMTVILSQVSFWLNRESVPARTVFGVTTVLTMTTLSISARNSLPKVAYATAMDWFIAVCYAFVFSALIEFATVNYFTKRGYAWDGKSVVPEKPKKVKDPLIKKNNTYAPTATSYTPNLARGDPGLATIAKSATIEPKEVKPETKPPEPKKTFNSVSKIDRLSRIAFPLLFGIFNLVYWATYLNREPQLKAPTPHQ
Chain of D(1A) dopamine receptor (P21728 whole entry): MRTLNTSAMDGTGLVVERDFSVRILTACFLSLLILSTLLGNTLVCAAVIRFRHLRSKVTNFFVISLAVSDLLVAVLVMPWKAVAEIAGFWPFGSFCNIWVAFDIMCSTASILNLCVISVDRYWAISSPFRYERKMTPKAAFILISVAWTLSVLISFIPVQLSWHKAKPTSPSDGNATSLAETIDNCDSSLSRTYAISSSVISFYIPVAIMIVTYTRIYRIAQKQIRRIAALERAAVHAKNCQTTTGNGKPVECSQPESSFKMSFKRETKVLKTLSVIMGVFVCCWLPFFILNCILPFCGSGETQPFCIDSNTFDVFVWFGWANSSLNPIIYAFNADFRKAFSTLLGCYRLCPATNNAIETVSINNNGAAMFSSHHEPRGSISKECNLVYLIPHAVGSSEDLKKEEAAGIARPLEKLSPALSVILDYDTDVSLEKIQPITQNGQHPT

Compound	AC50 [1] [µM]	AC50 [2] [µM]	also measured
CC[C@@H]1C[C@]1(NC(=O)[C@@H]1C[C@@H]2CN1C(=O)[C@H](C(C)(C)C)NC(=O)OCC(C)(C)CCCCc1cccc3c1CN(C3)C(=O)O2)C(=O)NS(=O)(=O)C1CC1	> 3	> 30	–
CC(=O)NO [ACETOHYDROXAMIC ACID]	> 30	> 30	–
C=C(C)CNc1ccc(C(C)C(=O)O)cc1 (stereo not drawn) [ALMINOPROFEN]	> 30	> 30	–
C[C@H]1CN(C[C@H](Cc2ccccc2)C(=O)NCC(=O)O)CC[C@@]1(C)c1cccc(O)c1 [ALVIMOPAN]	> 30	> 30	–
O=C(O)c1ccccc1 [BENZOIC ACID]	> 30	–	–
Nc1c(CC(=O)O)cccc1C(=O)c1ccc(Br)cc1 [BROMFENAC]	> 30	–	–
CC(C)NC(=N)NC(=N)Nc1ccc(Cl)c(Cl)c1 [CHLORPROGUANIL]	–	> 30	AC50 [3]: 12 µM; AC50 [4]: > 30 µM; AC50 [5]: > 30 µM; AC50 [6]: > 30 µM; AC50 [7]: > 30 µM
C[C@H]1O[C@@H](O[C@H]2CC[C@@]3(C)[C@H](CC[C@@H]4[C@@H]3C[C@@H](O)[C@]3(C)[C@@H](C5=CC(=O)OC5)CC[C@]43O)C2)C[C@H](O)[C@@H]1O[C@H]1C[C@H](O)[C@H](O[C@H]2C[C@H](O)[C@H](O[C@@H]3O[C@H](CO)[C@@H](O)[C@H](O)[C@H]3O)[C@@H](C)O2)[C@@H](C)O1 [DESLANOSIDE]	> 30	> 30	–
CN[C@@H]1[C@H](O[C@H]2[C@H](O[C@H]3[C@H](O)[C@@H](O)[C@H](NC(=N)N)[C@@H](O)[C@@H]3NC(=N)N)O[C@@H](C)[C@]2(O)CO)O[C@@H](CO)[C@H](O)[C@H]1O [DIHYDROSTREPTOMYCIN]	–	> 30	–
CC[C@H]1OC(=O)[C@H](C)[C@@H](O[C@H]2C[C@@](C)(OC)[C@@H](O)[C@H](C)O2)[C@H](C)[C@@H](O[C@@H]2O[C@H](C)C[C@H](N(C)C)[C@H]2O)[C@](C)(O)C[C@@H](C)[C@@H]2N[C@@H](COCCOC)O[C@H]([C@H]2C)[C@]1(C)O [DIRITHROMYCIN]	> 30	–	–
CCCCc1oc2ccc(NS(C)(=O)=O)cc2c1C(=O)c1ccc(OCCCN(CCCC)CCCC)cc1 [DRONEDARONE]	5.92	–	–
O=C(O)Cc1ccccc1Oc1ccc(Cl)cc1Cl [FENCLOFENAC]	> 30	–	AC50 [8]: > 30 µM; AC50 [3]: > 30 µM; AC50 [4]: > 30 µM; AC50 [5]: > 10 µM; AC50 [9]: > 30 µM; AC50 [6]: > 30 µM; AC50 [7]: > 10 µM
CC(C(=O)O)c1cccc(Oc2ccccc2)c1 (stereo not drawn) [FENOPROFEN]	> 30	–	–
CC1(C)O[C@@H]2C[C@H]3[C@@H]4C[C@H](F)C5=CC(=O)C=C[C@]5(C)[C@@]4(F)[C@@H](O)C[C@]3(C)[C@]2(C(=O)CO)O1 [FLUOCINOLONE ACETONIDE]	> 30	–	–
O=C(O)P(=O)(O)O [FOSCARNET]	> 30	–	–
C#C[C@]1(O)C=C[C@H]2[C@@H]3CCC4=CC(=O)CC[C@@H]4[C@H]3CC[C@@]21CC [GESTODENE]	–	0.003	–
